We go through 13 compounds from article PMC9143817 (Molecules, 2022).

Where two headings read alike, the source gives them in different places.

Details of assay [1]: concentration or dose not given beside the values. The note with it: at similar concentrations; ref 3 (usnic acid), 50 (eugenol), 51 (resveratrol), 52 (taxifolin), 53 (olivetol); cited from earlier work.
Assay [2] deals with T1, acetylcholinesterase (AChE) (Electrophorus electricus, UniProt O42275). The note with it: literature values, cited from earlier work.
T1 sequence (O42275 24-633): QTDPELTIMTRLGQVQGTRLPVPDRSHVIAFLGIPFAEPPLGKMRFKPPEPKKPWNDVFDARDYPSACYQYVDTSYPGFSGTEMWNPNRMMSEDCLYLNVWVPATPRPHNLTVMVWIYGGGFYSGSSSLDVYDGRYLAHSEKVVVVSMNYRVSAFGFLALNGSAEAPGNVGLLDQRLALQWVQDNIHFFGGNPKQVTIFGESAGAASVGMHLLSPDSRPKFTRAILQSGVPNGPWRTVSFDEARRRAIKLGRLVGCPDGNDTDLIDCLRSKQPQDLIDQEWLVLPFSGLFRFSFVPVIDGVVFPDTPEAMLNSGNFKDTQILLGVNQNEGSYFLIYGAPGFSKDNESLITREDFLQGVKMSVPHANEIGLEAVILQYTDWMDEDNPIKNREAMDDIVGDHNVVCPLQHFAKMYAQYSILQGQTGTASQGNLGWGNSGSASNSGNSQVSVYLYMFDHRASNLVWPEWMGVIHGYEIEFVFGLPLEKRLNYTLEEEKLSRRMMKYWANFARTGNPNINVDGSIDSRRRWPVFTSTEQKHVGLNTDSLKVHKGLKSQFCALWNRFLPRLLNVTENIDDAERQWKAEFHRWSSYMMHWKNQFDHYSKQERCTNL
On the set-up of assay [3]: method as in ref 3 (usnic acid), 46 (caffeic acid), 47 (uric acid), 48 (tannic acid), 49 (caffeic acid phenethyl ester); concentration or dose not given beside the values. The note with it: at similar concentrations; ref 3 (usnic acid), 46 (caffeic acid), 47 (uric acid), 48 (tannic acid), 49 (caffeic acid phenethyl ester); cited from earlier work.
Assay [4] can be described thus: DMPD^•+-scavenging activity. The source says:
In this study, DMPD radicals were generated in situ by oxidation with ferric chloride. […] (as a biologically active and bright yellow chemical produced by Curcuma longa species).

The target of assay [5] is T1, acetylcholinesterase (AChE). The assay is described as follows: biochemical.
In assay [6] the target is T2, carbonic anhydrase II isoenzyme (hCA II) (Homo sapiens, UniProt P00918).
T2 construct: Human erythrocytes were used as the CA II isoenzyme source; from tissue; host or cells: human erythrocytes
The assay is described as follows: CA II inhibition (esterase activity). The assay is classed as biochemical.
Description: Human erythrocytes were used as the CA II isoenzyme source. Fresh human erythrocytes were centrifuged at 10,000× g for 30 min. Then, they were precipitated and the serum was separated and adjusted with solid Tris to pH 8.7 [99]. The CA II isoenzyme was purified using Sepharose-4B-L-Tirozyne-sulfanylamide affinity column chromatography [100]. […] During the purification and inhibition process of hCA II, esterase activity was examined.

Assay [7] concerns the target butyrylcholinesterase (BChE) (Equus caballus, UniProt P81908). The assay is described as follows: biochemical.
Assay [8] is described as follows: ABTS^•+-scavenging activity. The source says: A ABTS^•+-scavenging assay measured the ability of pure compounds to decrease the color, reacting directly with the ABTS radical.
A further assay has as its target α-glycosidase. The assay is described as follows: α-Glycosidase inhibition (p-NPG substrate). It is filed as biochemical. The note with it: read-out: IC50 (nM) α-Gly. As to the method: The absorbances of samples were measured at 405 nm. One α-glycosidase unit was the enzyme quantity, which catalyzes […] of substrate per minute (pH 7.4).
Lineweaver–Burk graphs were used for the determination of Ki values and other inhibition parameters.

The nature of assay [9]: DPPH^•-scavenging activity (Blois method). The source says: Radical-scavenging assays are often used for screening the antioxidant properties of pure or novel synthesized compounds. For this purpose, the most commonly and widely used radical scavenging method is the DPPH radical-scavenging assay.
Setting [10] is: ref 53 (olivetol), 59 (taxifolin).

Chain of butyrylcholinesterase (BChE) (P81908 whole entry): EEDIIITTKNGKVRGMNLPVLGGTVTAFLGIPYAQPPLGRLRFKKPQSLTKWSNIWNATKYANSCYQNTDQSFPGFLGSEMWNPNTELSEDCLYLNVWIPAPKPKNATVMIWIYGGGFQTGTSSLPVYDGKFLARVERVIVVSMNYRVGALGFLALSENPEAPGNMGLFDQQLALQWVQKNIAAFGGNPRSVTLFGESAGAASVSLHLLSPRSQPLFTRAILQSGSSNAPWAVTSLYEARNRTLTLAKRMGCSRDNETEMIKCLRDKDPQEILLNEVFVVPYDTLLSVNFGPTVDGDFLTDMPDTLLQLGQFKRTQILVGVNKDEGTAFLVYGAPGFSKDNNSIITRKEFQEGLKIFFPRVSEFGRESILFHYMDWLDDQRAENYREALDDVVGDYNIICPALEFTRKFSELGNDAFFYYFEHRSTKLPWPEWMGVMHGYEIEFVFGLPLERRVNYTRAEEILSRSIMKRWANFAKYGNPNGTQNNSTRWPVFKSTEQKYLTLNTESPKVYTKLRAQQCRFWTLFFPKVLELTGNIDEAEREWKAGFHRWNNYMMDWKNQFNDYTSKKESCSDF

`CC(=O)c1c(O)c(C)c(O)c2c1OC1=CC(=O)C(C(C)=O)C(=O)C12C` (stereo not drawn) [usnic acid]: the “absorbance values for Cu^2+-reducing activity” value in [1] is recorded as 0.277. Also, the Ki in [2] (ref 3 (usnic acid), 58 (CAPE)) was 3.39 nM. The “absorbance values for Fe^3+-reducing activity” value in assay [3] is 0.278.
In the case of `O=c1oc2cc(O)ccc2c2oc3cc(O)ccc3c12` [Coumestrol, 3,9-dihydroxy-6-benzofuran [3,2-c] chromenone], the “DMPD^•+ Scavenging IC50” value in [4] was 12.81 µg/mL. Besides, the half-maximal inhibitory concentration (IC50) came out at 21.1 nM in [5], 44 nM in [6], 18.2 nM in assay [7] and 27.5 nM at α-glycosidase. Also, the inhibition constant Ki was 23.8 ± 2.17 nM in assay [6] and 21.7 ± 2.23 nM in assay [7] (Lineweaver–Burk). Further, in assay [8], the “ABTS^•+ Scavenging IC50” value stood at 12.24 µg/mL. Further, the “DPPH^• Scavenging IC50” value in [9] turned out to be 25.95 µg/mL.
`CCCCCc1cc(O)cc(O)c1` [olivetol]: the “absorbance values for Cu^2+-reducing activity” value in assay [1] was 1.314. Moreover, the “Ki for AChE” value in assay [2] (setting [10]) was 5.13 µg/mL.
On to `O=C(/C=C/c1ccc(O)c(O)c1)OCCc1ccccc1` [CAPE, caffeic acid phenethyl ester], for which, in [3], the “absorbance values for Fe^3+-reducing activity” value was 2.509.
Take `Cc1c(C)c2c(c(C)c1O)CCC(C)(C(=O)O)O2` (stereo not drawn) [Trolox]: the “DMPD^•+ Scavenging IC50” value in [4] amounted to 4.33 µg/mL. In addition, the “ABTS^•+ Scavenging IC50” value in [8] worked out at 6.16 µg/mL. The “DPPH^• Scavenging IC50” value in assay [9] was determined as 7.059 µg/mL.
With tannic acid, the “absorbance values for Fe^3+-reducing activity” value in [3] is listed as 2.428.
Consider `O=C1c2c(O)cc(O)cc2OC(c2ccc(O)c(O)c2)C1O` (stereo not drawn) [taxifolin], for which the “absorbance values for Cu^2+-reducing activity” value in [1] is on record as 0.750. Further, in assay [2] (setting [10]), the inhibitory constant (Ki) was 54900 nM.
For `Cc1c(C)c2c(c(C)c1O)CC[C@@](C)(CCC[C@H](C)CCC[C@H](C)CCCC(C)C)O2` [α-Tocopherol], the “DMPD^•+ Scavenging IC50” value in [4] came out at 7.11 µg/mL. The “ABTS^•+ Scavenging IC50” value in assay [8] turned out to be 8.37 µg/mL. Further, the “DPPH^• Scavenging IC50” value in [9] is 11.31 µg/mL.
With `Cc1cc(C(C)(C)C)c(O)c(C(C)(C)C)c1` [BHT, butylated hydroxytoluene], in assay [4], the “DMPD^•+ Scavenging IC50” value came to 8.72 µg/mL. In addition, the “ABTS^•+ Scavenging IC50” value in [8] worked out at 6.99 µg/mL. Moreover, the “DPPH^• Scavenging IC50” value in assay [9] is 25.95 µg/mL.
As for `O=c1[nH]c(=O)c2[nH]c(=O)[nH]c2[nH]1` [uric acid], the “absorbance values for Fe^3+-reducing activity” value in assay [3] is 0.432.
For `C=CCc1ccc(O)c(OC)c1` [eugenol], the “absorbance values for Cu^2+-reducing activity” value in assay [1] is listed as 0.762.
With `O=C(O)/C=C/c1ccc(O)c(O)c1` [caffeic acid], in [3], the “absorbance values for Fe^3+-reducing activity” value is 2.769.
`COc1ccc(O)c(C(C)(C)C)c1` [BHA, Butylated hydroxyanisole]: the “DMPD^•+ Scavenging IC50” value in assay [4] came out at 11.99 µg/mL. Further, the “ABTS^•+ Scavenging IC50” value in assay [8] came to 5.07 µg/mL. The “DPPH^• Scavenging IC50” value in assay [9] turned out to be 10.10 µg/mL.
